Assay results taken from ChEMBL document CHEMBL1201862, “PubChem BioAssay data set” (2004).
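Interpolation was linear, between the two tested concentrations surrounding the appropriate level; five concentrations were tested over 48 hours in 96-well plates. GI50: concentration for 50% inhibition of growth.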 The source made the active and inactive calls. Cut-off read from the data, not from the text of the source: active = GI50 up to about 1.1 µM and inactive = higher.

Assays:
Test in all cases: NCI anticancer screen, dose series, 48 h
[1] = tested on: M19-MEL
[2] = tested on: XF498
[3] = tested on: SNB-78
[4] = tested on: RXF 631
[5] = tested on: LXFL 529
[6] = tested on: DMS-273
[7] = tested on: HOP-18
[8] = tested on: DMS-114
[9] = tested on: BT-549

| Structure (SMILES) | GI50 [1] | GI50 [2] | GI50 [3] | GI50 [4] | GI50 [5] | GI50 [6] | GI50 [7] | GI50 [8] | GI50 [9] |
| --- | --- | --- | --- | --- | --- | --- | --- | --- | --- |
| COc1ccc(C(=O)C(c2ccc(OC)cc2)C2(O)C(=O)Nc3ccccc32)cc1 (centres undefined) | > 100 µM (inactive) | > 100 µM (inactive) | > 100 µM (inactive) | > 100 µM (inactive) | > 100 µM (inactive) | > 100 µM (inactive) | – | – | – |
| CCc1cccc(C)c1NC(=O)C(=O)CC(=O)c1ccc(Cl)s1 | > 100 µM (inactive) | – | > 100 µM (inactive) | > 100 µM (inactive) | > 100 µM (inactive) | – | > 100 µM (inactive) | – | – |
| CCOC(=O)Cc1c(Cc2[nH]c(C(=O)OCc3ccccc3)c(CC(=O)OCC)c2CC(=O)OCC)[nH]c(C(=O)OCc2ccccc2)c1CC(=O)OCC | > 100 µM (inactive) | – | > 100 µM (inactive) | – | > 100 µM (inactive) | – | > 100 µM (inactive) | > 100 µM (inactive) | – |
| COC(=O)c1cccc2c3ccccc3c3ccccc3c12 | 51.2 µM (inactive) | – | – | – | 28 µM (inactive) | 33.3 µM (inactive) | 26.9 µM (inactive) | 29.4 µM (inactive) | – |
| N#CC(NNC(=O)c1ccccc1O)c1c(O)ccc2ccccc12 (centres undefined) | 1.78 µM (inactive) | – | 19.8 µM (inactive) | – | 3.76 µM (inactive) | 2.52 µM (inactive) | 2.04 µM (inactive) | 1.87 µM (inactive) | 7.11 µM (inactive) |
| COc1ccc(NCc2cc(OC)cc(OC)c2)cc1 | 15.1 µM (inactive) | 4.3 µM (inactive) | 19.6 µM (inactive) | 10.5 µM (inactive) | 26.2 µM (inactive) | 6.15 µM (inactive) | > 42.7 µM (inactive) | 6.53 µM (inactive) | – |
| CC(C)CCCC(C)[C@H]1CCC2[C@H]3C(CC[C@@]21C)[C@@]1(C)CCC=C[C@]12C[C@@H]2[C@@H]3O (some centres undefined) | – | – | > 100 µM (inactive) | > 100 µM (inactive) | > 100 µM (inactive) | > 100 µM (inactive) | > 100 µM (inactive) | > 100 µM (inactive) | – |
| C#CCN(N=O)C(=O)NCCCCC(NC(C)=O)C(=O)NCc1ccccc1 (centres undefined) | > 100 µM (inactive) | 2.68 µM (inactive) | > 100 µM (inactive) | – | > 100 µM (inactive) | – | > 100 µM (inactive) | > 100 µM (inactive) | – |
| Cc1cccc2cc3cccc(C(=O)NCCN(C)C)c3nc12 | 0.157 µM (active) | – | 0.614 µM (active) | 0.0538 µM (active) | 0.275 µM (active) | 0.0374 µM (active) | 0.399 µM (active) | 0.115 µM (active) | – |
| S=C1NCCN1 | > 100 µM (inactive) | > 100 µM (inactive) | > 100 µM (inactive) | – | > 100 µM (inactive) | > 100 µM (inactive) | – | > 100 µM (inactive) | – |
| CC(C)[Si](OCC1CC(C#N)OC(C)(C)O1)(C(C)C)C(C)C (centres undefined) | 25.2 µM (inactive) | 21 µM (inactive) | 20.5 µM (inactive) | – | – | 19.2 µM (inactive) | 30.5 µM (inactive) | > 10 µM (inactive) | – |
| Cc1cccc(C(C)(C)C)c1NC(=O)CCl | > 100 µM (inactive) | > 100 µM (inactive) | > 100 µM (inactive) | > 100 µM (inactive) | > 100 µM (inactive) | > 100 µM (inactive) | > 100 µM (inactive) | – | – |
| CC(=O)Nc1ccc(/C=c2\sc3nnc(/C=C/c4ccccc4)n3c2=O)cc1 | > 50 µM (inactive) | > 50 µM (inactive) | > 50 µM (inactive) | > 50 µM (inactive) | > 50 µM (inactive) | > 50 µM (inactive) | 17.1 µM (inactive) | > 50 µM (inactive) | – |
| CC(=O)Nc1ccc(C2=N/C(=C\c3ccc(Cl)cc3)C(=O)O2)cc1 | 25.5 µM (inactive) | 22 µM (inactive) | > 100 µM (inactive) | – | 24.4 µM (inactive) | 66.5 µM (inactive) | > 100 µM (inactive) | – | – |
| CCOC(=O)c1cc(C(=O)O)c(=O)n2c1[nH]c1ccccc12 | > 100 µM (inactive) | > 100 µM (inactive) | > 100 µM (inactive) | > 100 µM (inactive) | 75.7 µM (inactive) | 56.1 µM (inactive) | 42.1 µM (inactive) | > 100 µM (inactive) | – |
| CC1(C)C(=O)CCC(=O)C(C)(C)C2=CC=C(O2)C(C)(C)C(=O)CCC(=O)C(C)(C)C2=CC=C1O2 | > 100 µM (inactive) | – | > 100 µM (inactive) | – | > 100 µM (inactive) | > 100 µM (inactive) | > 100 µM (inactive) | – | – |
| Cn1c(=O)c(C(c2ccccc2)c2c(O)c3ccccc3n(C)c2=O)c(O)c2ccccc21 | > 100 µM (inactive) | > 100 µM (inactive) | > 100 µM (inactive) | > 100 µM (inactive) | > 100 µM (inactive) | > 100 µM (inactive) | > 100 µM (inactive) | > 100 µM (inactive) | – |
| CS(=O)(=O)OC1CCC2(C#N)CCC1C2=O (centres undefined) | > 100 µM (inactive) | > 100 µM (inactive) | > 100 µM (inactive) | > 100 µM (inactive) | > 100 µM (inactive) | 22.5 µM (inactive) | > 100 µM (inactive) | – | – |
| CCc1cccc(C)c1NC(=S)NC(=O)c1ccccc1C(=O)NC(=S)Nc1c(C)cccc1CC | 39.2 µM (inactive) | – | > 100 µM (inactive) | – | 85.5 µM (inactive) | 95.3 µM (inactive) | 50.7 µM (inactive) | 29.9 µM (inactive) | – |

| Structure (SMILES) | GI50 [1] | GI50 [2] | GI50 [3] | GI50 [4] | GI50 [5] | GI50 [6] | GI50 [7] | GI50 [8] | GI50 [9] |
| --- | --- | --- | --- | --- | --- | --- | --- | --- | --- |
| C/C(=N\NC(=S)N1CCN(c2ccccn2)CC1)c1nccs1 | 0.574 µM (active) | 13 µM (inactive) | 6.76 µM (inactive) | 1.05 µM (active) | 0.01 µM (active) | 0.351 µM (active) | 2.92 µM (inactive) | 0.01 µM (active) | 2.02 µM (inactive) |
| CCn1c2ccccc2c2ccc3c(c21)C(=O)c1ccccc1C3=O | 24.2 µM (inactive) | > 100 µM (inactive) | > 100 µM (inactive) | – | > 100 µM (inactive) | > 100 µM (inactive) | > 100 µM (inactive) | > 100 µM (inactive) | – |
| C=C1CC[C@@H]2C(C)(C)C(O)CCC2(C)C1COc1ccc2ccc(=O)oc2c1 (some centres undefined) | 18.4 µM (inactive) | 16 µM (inactive) | 19.4 µM (inactive) | – | 11.2 µM (inactive) | 14.3 µM (inactive) | 19.6 µM (inactive) | 15 µM (inactive) | – |
| Cc1ccc(/C=C/C(=O)C(C)C)cc1 | 64 µM (inactive) | – | 64.7 µM (inactive) | – | 33.8 µM (inactive) | – | – | 42.2 µM (inactive) | – |
| O=C(O)C1=C(O)C(C(=O)O)C23CCCCCCCCCCC12C(C(=O)O)C(O)=C3C(=O)O (centres undefined) | > 100 µM (inactive) | > 100 µM (inactive) | – | – | > 100 µM (inactive) | > 100 µM (inactive) | > 100 µM (inactive) | > 100 µM (inactive) | – |
| CC1(S)CC2C(CC1Sc1ccccc1)C2(C)C (centres undefined) | > 100 µM (inactive) | > 100 µM (inactive) | > 100 µM (inactive) | – | > 100 µM (inactive) | > 100 µM (inactive) | > 100 µM (inactive) | > 100 µM (inactive) | – |
| CN(C)CCS/C(=N\c1ccccc1)N1CCCCC1 | 17.1 µM (inactive) | 16.1 µM (inactive) | – | – | 15.9 µM (inactive) | 16.7 µM (inactive) | 17.9 µM (inactive) | 13.5 µM (inactive) | – |
| Cc1cccc(NC(=O)C(=O)C(C2OC(=O)c3ccccc32)[N+](=O)[O-])c1C (centres undefined) | 1.87 µM (inactive) | 6.81 µM (inactive) | 17.5 µM (inactive) | 5.98 µM (inactive) | 8.04 µM (inactive) | 2.59 µM (inactive) | 10.5 µM (inactive) | 2.86 µM (inactive) | – |
| COC(=O)C1=C(C)N(NC(=O)c2ccccc2)C(C)(O)C12CCOC2=O (centres undefined) | – | > 100 µM (inactive) | > 100 µM (inactive) | – | > 100 µM (inactive) | > 100 µM (inactive) | > 100 µM (inactive) | > 100 µM (inactive) | – |
| Cc1ccc(/C=C/C(=O)c2ccc(Cl)c(Cl)c2)cc1 | – | > 100 µM (inactive) | > 100 µM (inactive) | > 100 µM (inactive) | > 100 µM (inactive) | > 100 µM (inactive) | 63.1 µM (inactive) | – | – |
| Cc1cc(Br)cc(C)c1NC(=O)C(=O)CC(=O)c1sc(-n2nc(-c3ccccc3)cc2-c2ccccc2)nc1C | > 100 µM (inactive) | – | > 100 µM (inactive) | > 100 µM (inactive) | > 100 µM (inactive) | > 100 µM (inactive) | > 100 µM (inactive) | > 100 µM (inactive) | – |
| CN(C)c1ncnc2c1Cc1ccccc1C(=O)N2C | > 100 µM (inactive) | > 100 µM (inactive) | > 100 µM (inactive) | > 100 µM (inactive) | > 100 µM (inactive) | > 100 µM (inactive) | > 100 µM (inactive) | > 100 µM (inactive) | – |
| CCN(CC)CCN1C=CC(C)C(C(=O)O)C1C(N)=O (centres undefined) | – | – | – | – | – | – | – | – | > 100 µM (inactive) |
| COc1ccc(/C=N\NC(=O)Nc2cccc3ccccc23)cc1 | – | – | – | – | – | – | – | – | 29.9 µM (inactive) |
| COc1c(OC)c(OC)c2c(=O)c(OC)c(-c3ccc4c(c3)OCO4)oc2c1OC | – | – | – | – | – | – | – | – | > 100 µM (inactive) |
| N#CC1=C(N)N(/N=C/c2ccco2)C(c2ccco2)C1(C#N)C#N (centres undefined) | – | – | – | – | – | – | – | – | 17.6 µM (inactive) |
| CCCCCc1cc2cc3c(c(O)c2c(=O)[nH]1)C1(CCC3)C(=O)c2c(O)c3c(c(O)c2C1=O)C(=O)C(OC)=CC3=O (centres undefined) | – | – | – | – | – | – | – | – | 0.703 µM (active) |
| N=C(CCl)NC1CN2CCC1CC2 (centres undefined) | – | – | – | – | – | – | – | – | > 100 µM (inactive) |
